{"source": "paper PMC7069944", "about": "“Amino acid levels determine metabolism and CYP450 function of hepatocytes and hepatoma cell lines” (Nature Communications, 2020)", "key": {"[1]": {"biological_target": "CYP3A4 (Homo sapiens, UniProt P08684)", "sequence (P08684 whole entry)": "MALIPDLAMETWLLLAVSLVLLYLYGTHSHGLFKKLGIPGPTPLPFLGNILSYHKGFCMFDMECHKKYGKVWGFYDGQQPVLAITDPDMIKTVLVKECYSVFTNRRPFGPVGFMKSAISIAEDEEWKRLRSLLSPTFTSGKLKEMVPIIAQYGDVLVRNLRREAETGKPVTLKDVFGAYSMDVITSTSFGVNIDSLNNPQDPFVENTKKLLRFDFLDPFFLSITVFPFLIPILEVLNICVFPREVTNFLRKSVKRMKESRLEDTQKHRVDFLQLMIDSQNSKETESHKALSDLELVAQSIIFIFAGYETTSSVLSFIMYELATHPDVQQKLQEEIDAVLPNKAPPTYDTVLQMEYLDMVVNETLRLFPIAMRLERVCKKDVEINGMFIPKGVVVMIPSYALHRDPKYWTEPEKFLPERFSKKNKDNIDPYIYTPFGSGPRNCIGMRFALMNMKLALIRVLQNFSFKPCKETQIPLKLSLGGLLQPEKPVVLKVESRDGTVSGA", "method": "Comparative CYP450 biotransformation studies were performed to assess functionality across a number of gold standard primary hepatocyte models. Cryopreserved PHHs were obtained from a single donor (Lonza, Breda, The Netherlands) or pooled donors (Thermo Scientific, Merelbeke, Belgium). Upon thawing, cell suspensions (0.5 million cells/ml) were prepared in WE medium using 24-well plates (0.5 ml/well) on an orbital shaker and metabolization activity was assessed following a 15 min equilibration period. Human Hepatopac® plates were obtained from Ascendance Biotechnology (Ascendance Biotechnology, Boston USA) and cultures were maintained following instructions of the provider. Spheroid cultures were generated in-house as essentially described by Bell et al.[42].\nFinally, the system was re-equilibrated at 60% (A)/40% (B) for an additional 0.7 min. Total run time was 3.8 min and 2 µl aliquots were injected onto the system for analysis.\nAll data collection, processing, and analysis was performed with Analyst® software (v1.6.2. SCIEX)."}, "[2]": {"system": "HLCs", "test": "Single-exposure toxicity, Hoechst/DRAQ7 live cell number, HLCs", "procedure": "(§1) PSCs were differentiated in a 384-well format. Cells were treated with 14 different concentrations of compounds in 6 repeats. As a negative control, 41 wells were left untreated. HepG2 were seeded at 40,000 cells per well. For control conditions, HepG2 were exposed after 2 days of culture. […] Cells were fixed with 4% PFA. Imaging was done using an Operetta High-Content Imaging System (Perkin Elmer) and image analysis was performed using Harmony software (Perkin Elmer). […] As a positive control, 1 donor of PHHs was seeded at 10,000 cells per well. Drugs were administrated after 8 h of attachment."}, "[3]": {"system": "PHHs", "test": "Single-exposure toxicity, Hoechst/DRAQ7 live cell number, PHH 12 h", "settings": "Homo sapiens, read-out: IC50 single exposure, Mean", "procedure": "as §1"}, "[4]": {"system": "HC6X in the H9-ESC background", "test": "Single-exposure toxicity, Hoechst/DRAQ7 live cell number, HC6X (H9-ESC)", "settings": "Homo sapiens", "procedure": "as §1"}, "[5]": {"system": "HepG2", "test": "Single-exposure toxicity, Hoechst/DRAQ7 live cell number, HepG2", "settings": "for pIC50: Homo sapiens", "procedure": "as §1"}, "[6]": {"system": "HC6X in the BJ1-iPSC background", "test": "Single-exposure toxicity, Hoechst/DRAQ7 live cell number, HC6X (BJ1-iPSC)", "settings": "Homo sapiens", "procedure": "as §1"}, "[7]": {"system": "CYP3A4", "test": "qRT-PCR CYP3A4 expression in HepG2", "assay_type": "cell-based, human", "settings": "single amino acid supplementation, relative to CTL (CTL values equal HepG2 D7 CTL)", "method": "AA supplementation was accomplished through the addition of MEM Non-Essential Amino Acids Solution (100 × ) and MEM Amino Acids Solution (50 × ) (Thermo Scientific) to the culture medium. For AA1, AA2, and AA3 medium, we added respectively 2 ml, 8 ml, and 16 ml of non-essential AA solution and 1 ml, 4 ml, and 8 ml of essential AA solution per 100 ml of LDM, with or without glucose. Culture medium was then made PH neutral through the addition of NaOH. […] PSC derived HLCs were differentiated in LDM until D12. AA supplementation (AA1, AA2 and AA3) was performed from day 12 until day 20, 30 or 40 of differentiation. […] HepG2, HUH7.5, Hep3B, HHL5, and HEK293 cells were maintained in DMEM supplemented with 10% fetal bovine serum as shown in Supplementary Table 4. AA supplementation consisted of addition of 16 ml of non-essential AA mix and 8 ml of essential AA mix per 100 ml of medium and a further addition of 20 g/l of any of the single AAs. […] PHHs were maintained in a medium composition that was based on WE as detailed in ref. [67].\nRNA extraction was performed using the GenElute Mammalian Total RNA Miniprep Kit (Sigma-Aldrich). Then, genomic DNA was eliminated using the On-Column DNase I Digestion kit (Sigma-Aldrich). Last, 1 µg of RNA was transcribed to cDNA using the Superscript III First-Strand synthesis (Invitrogen). Gene expression analysis was performed using the Platinum SYBR green qPCR supermix-UDG kit (Invitrogen) in a ViiA 7 Real-Time PCR instrument (Thermo Scientific, Waltham, MA). The sequences of all used qRT-PCR primers are listed in Supplementary Table 6. Of these, ribosomal protein L19 (RPL19) was used as a housekeeping gene for normalization."}}, "note": "pIC50: −log10 of the molar value. Values joined by “and” are separate entries in the source; they are usually repeats but may differ in a detail not shown here. Identical values can stand only once. Like-named read-outs stand apart in the source and are kept apart here."}
{"smiles": "OCc1ncc2n1-c1ccc(Cl)cc1C(c1ccccc1F)=NC2", "note": "[10H-midazolam]", "values": [{"measurement": "Stable 10H-midazolam metabolisation rate", "setting": "[1]; HC6X AAGLY D40, D46", "value": "371.429 ng/h/100 000 cells and 443.182 ng/h/100 000 cells and 446.97 ng/h/100 000 cells"}, {"measurement": "Stable 10H-midazolam metabolisation rate", "setting": "[1]; HC6X AAGLY D40, D48", "value": "353.788 ng/h/100 000 cells and 537.879 ng/h/100 000 cells and 462.121 ng/h/100 000 cells"}, {"measurement": "Stable 10H-midazolam metabolisation rate", "setting": "[1]; HepG2 AAGLY D30, column head D40", "value": "79.0741 ng/h/100 000 cells and 82.3438 ng/h/100 000 cells and 89.7887 ng/h/100 000 cells"}, {"measurement": "Stable 10H-midazolam metabolisation rate", "setting": "[1]; HepG2 AAGLY D30, column head D42", "value": "185 ng/h/100 000 cells and 122.333 ng/h/100 000 cells and 146.406 ng/h/100 000 cells"}, {"measurement": "Stable 10H-midazolam metabolisation rate", "setting": "[1]; HepG2 AAGLY D30, column head D46", "value": "133.654 ng/h/100 000 cells and 137.308 ng/h/100 000 cells and 133.846 ng/h/100 000 cells"}, {"measurement": "Stable 10H-midazolam metabolisation rate", "setting": "[1]; HepG2 AAGLY D30, column head D48", "value": "133.333 ng/h/100 000 cells and 151.667 ng/h/100 000 cells and 136.296 ng/h/100 000 cells"}, {"measurement": "Stable 10H-midazolam metabolisation rate", "setting": "[1]; HepG2 AAGLY D30, column head D50", "value": "105 ng/h/100 000 cells and 107.963 ng/h/100 000 cells and 103.75 ng/h/100 000 cells"}]}
{"smiles": "C=C(C)[C@H]1Cc2c(ccc3c2O[C@@H]2COc4cc(OC)c(OC)cc4[C@@H]2C3=O)O1", "note": "[rotenone]", "values": [{"measurement": "IC50 single exposure, Mean", "setting": "[2]; H9 HLC LDM D40", "value": "No toxicity"}, {"measurement": "pIC50", "setting": "[2]; Homo sapiens, read-out: IC50 single exposure, Mean", "value": 8.27}, {"measurement": "pIC50", "setting": "[3]", "value": 8.89}, {"measurement": "pIC50", "setting": "[4]; read-out: IC50 single exposure, Mean, H9 HC6X AAGLY D40", "value": 8.08}, {"measurement": "pIC50", "setting": "[4]; read-out: IC50 single exposure, Mean, H9 HC6X AAGLY D50", "value": 8.38}, {"measurement": "IC50 single exposure, Mean", "setting": "[5]; HepG2 CTL D7", "value": "No toxicity"}, {"measurement": "pIC50", "setting": "[5]; HepG2, read-out: IC50 single exposure, Mean, HepG2 AAGLY D30", "value": 9.05}, {"measurement": "pIC50", "setting": "[5]; HepG2, read-out: IC50 single exposure, Mean, HepG2 AAGLY D40", "value": 8.60}, {"measurement": "pIC50", "setting": "[6]; read-out: IC50 single exposure, Mean, BJ1 HC6X AAGLY D40", "value": 8.59}, {"measurement": "pIC50", "setting": "[6]; read-out: IC50 single exposure, Mean, BJ1 HC6X AAGLY D50", "value": 8.12}]}
{"smiles": "OCc1ncc2n1-c1ccc(Cl)cc1C(c1ccccc1F)=NC2", "note": "[1-OH midazolam]", "values": [{"measurement": "1-OH midazolam formation (drug biotransformation cocktail)", "setting": "[1]; HepG2 AAGLY D32", "value": "5.9655 and 7.1394 and 9.0214"}, {"measurement": "1-OH midazolam formation (drug biotransformation cocktail)", "setting": "[1]; Hepatopac", "value": "23.2481 and 33.0328 and 45.6546"}, {"measurement": "1-OH midazolam formation (drug biotransformation cocktail)", "setting": "[1]; PHH1", "value": "5.4616 and 6.486"}]}
{"smiles": "O=C(O)[C@@H]1CCCN1", "note": "[PRO, proline]", "values": [{"measurement": "Relative CYP3A4 expression", "setting": "[7]", "value": "252.463 and 338.714 and 412.836"}]}
{"smiles": "N[C@@H](CO)C(=O)O", "note": "[SER, serine]", "values": [{"measurement": "Relative CYP3A4 expression", "setting": "[7]", "value": "405.322 and 582.424 and 382.821"}]}
